Data on 1 compound can be found in patent publication US20190054098A1, “AGENTS AND METHODS USING THEREOF FOR THE PREVENTION AND TREATMENT OF STEM CELLS SENESCENCE” (ECOLE POLYTECHNIQUE FEDERALE DE LAUSANNE (EPFL), priority 2015, published 2019).

This experiment concerns C2C12 myoblasts. The experiment in a line: Expression of UPRmt markers, prohibitins and cell cycle regulators in C2C12 myoblasts treated with TAP (FIG. 3). Type of experiment: cell-based. As to conditions: 50 μg/ml TAP, different treatment periods (FIG. 3). The protocol: Total RNA was extracted from MuSCs by sorting cells directly into TriPure RNA isolation reagent (Roche) or from cultured C2C12 myoblasts using TriPure reagent according to the product manual. Total RNA was transcribed to cDNA using QuantiTect Reverse Transcription Kit (Qiagen). Expression of selected genes was analyzed using the LightCycler480 system (Roche) and LightCycler® 480 SYBR Green I Master reagent (Roche). The acidic ribosomal protein 36b4 gene (ribosomal protein, large, P0, Rplp0) was used as housekeeping reference. C2C12 cells were lysed in a buffer composed of 50 mM Tris, 150 mM KCl, EDTA 1 mM, NP40 1%, nicotinamide 5 mM, sodium butyrate 1 mM and protease inhibitors cocktail (Roche) at pH 7.4. Proteins were separated by SDS-PAGE and transferred onto nitrocellulose membranes. Blocking and antibody incubations were performed in 3% BSA. The following primary antibodies were used: anti-cleavage caspase 3 (Cell Signalling); Anti-γH2AX (Millipore); anti-β-actin (Sigma). All secondary antibodies were from Jackson Immunoresearch. Antibody detection reactions were developed by enhanced chemiluminescence (Advansta, CA, USA) using x-ray films or imaged using the c300 imaging system (Azure Biosystems). The following primary antibodies were used: anti-HSP60 (Enzo Life Science); anti-PHB (Biolegend); anti-PHB2 (Santa Cruz); anti-CKD4 (Novus biologicals); anti-CCND1 (Santa Cruz); anti-CCND3 (Santa Cruz); anti-HSP90 (BD Biosciences); HSP70 (Abcam); anti-MT-CO1 (Biolegend); anti-ATP5A (Biolegend); anti-Grp78 (Abcam); and anti-CLPP (Sigma).

For `CS(=O)(=O)c1ccc([C@@H](O)[C@@H](CO)NC(=O)C(Cl)Cl)cc1` [thiamphenicol], the “UPR^mt induction” value is “induction”, the “cell cycle gene expression / cell cycle regulators” value was “induced”, the mitonuclear imbalance result was “induces” and the prohibitins expression entry is listed as “induced”. For the same compound, under “listed as TAP”, the “UPR^mt induction” value was “induces” and the “cell cycle gene expression / cell cycle regulators” value is “induces”.
